Assay results from ChEMBL document CHEMBL1201862, “PubChem BioAssay data set” (2004).
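Compound exposure: 48 hours, 5 concentrations, 96-well plates. The concentration for 50% growth inhibition is given as GI50.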 The source made the active and inactive calls. Rule as the data show it: active = GI50 up to about 1.1 µM and inactive = higher.

Tests used:
Experiment in all cases: growth of human tumour cells (NCI), 48 h
786-0 = test system: 786-0
TK-10 = test system: TK-10
BT-549 = test system: BT-549
MDA-N = test system: MDA-N
ACHN = test system: ACHN
UO-31 = test system: UO-31
RXF 393 = test system: RXF 393
SF-295 = test system: SF-295
OVCAR-5 = test system: OVCAR-5
Malme-3M = test system: Malme-3M
COLO 205 = test system: COLO 205
OVCAR-8 = test system: OVCAR-8
HL-60 = test system: HL-60
NCI-H23 = test system: NCI-H23
MDA-MB-231 = test system: MDA-MB-231
A549 = test system: A549
NCI-H226 = test system: NCI-H226
Hs-578T = test system: Hs-578T
UACC-257 = test system: UACC-257
SF-539 = test system: SF-539

Measured: GI50

CCOC(=O)c1sc2nc(SC)nc3c2c1N=CN3c1ccc(Br)cc1
inactive: 786-0 40.1 µM | TK-10 > 100 µM | BT-549 > 100 µM | MDA-N > 100 µM | ACHN > 100 µM | UO-31 > 100 µM | RXF 393 25.4 µM | SF-295 > 100 µM | OVCAR-5 > 100 µM | Malme-3M > 100 µM | COLO 205 > 100 µM | OVCAR-8 > 100 µM | HL-60 > 100 µM | NCI-H23 > 100 µM | MDA-MB-231 > 100 µM | A549 > 100 µM | NCI-H226 > 100 µM | Hs-578T 23.1 µM | UACC-257 > 100 µM

CC1(C)OC[C@@]2([C@@H]3CC[C@@H](C3)C2(C)C)N1O
inactive: 786-0 > 100 µM | TK-10 > 100 µM | SF-539 > 100 µM | BT-549 > 100 µM | MDA-N > 100 µM | ACHN > 100 µM | RXF 393 > 100 µM | SF-295 > 100 µM | OVCAR-5 > 100 µM | Malme-3M 28.8 µM | COLO 205 > 100 µM | OVCAR-8 > 100 µM | HL-60 > 100 µM | NCI-H23 > 100 µM | MDA-MB-231 > 100 µM | A549 > 100 µM | NCI-H226 > 100 µM | Hs-578T > 100 µM | UACC-257 > 100 µM

CSc1c(C#N)c(S)n(-c2ccc(Cl)cc2)c(=O)c1C#N
inactive: 786-0 > 100 µM | TK-10 > 100 µM | SF-539 > 100 µM | BT-549 > 100 µM | MDA-N > 100 µM | UO-31 27.9 µM | RXF 393 93.3 µM | OVCAR-5 > 100 µM | Malme-3M > 100 µM | COLO 205 > 100 µM | OVCAR-8 74.1 µM | HL-60 52.5 µM | NCI-H23 39.6 µM | MDA-MB-231 > 100 µM | A549 > 100 µM | NCI-H226 48.9 µM | Hs-578T > 100 µM | UACC-257 > 100 µM

Cc1c(C(C)C)cc(OCCO)cc1C(C)C
inactive: 786-0 24.4 µM | TK-10 > 100 µM | SF-539 55.5 µM | BT-549 37.2 µM | MDA-N 31.2 µM | ACHN 51.4 µM | UO-31 67.1 µM | RXF 393 16.6 µM | SF-295 34.4 µM | OVCAR-5 66.4 µM | COLO 205 34.8 µM | OVCAR-8 42.3 µM | HL-60 23.1 µM | NCI-H23 42.3 µM | MDA-MB-231 32.9 µM | A549 38.3 µM | NCI-H226 34.8 µM | Hs-578T 27.8 µM | UACC-257 35.2 µM

CCOC(=O)Cn1c(=O)c2nc(SC)sc2n(-c2ccccc2)c1=O
inactive: 786-0 > 100 µM | TK-10 > 100 µM | BT-549 > 100 µM | MDA-N > 100 µM | ACHN > 100 µM | UO-31 > 100 µM | RXF 393 > 100 µM | OVCAR-5 > 100 µM | Malme-3M > 100 µM | COLO 205 > 100 µM | OVCAR-8 > 100 µM | HL-60 > 100 µM | NCI-H23 > 100 µM | MDA-MB-231 > 100 µM | A549 > 100 µM | NCI-H226 > 100 µM | Hs-578T > 100 µM | UACC-257 > 100 µM

COC(=O)C(=O)C(C(=O)C(=O)Nc1cccc([N+](=O)[O-])c1)c1nc2ccc(Cl)cc2nc1O (stereo not given)
inactive: 786-0 > 100 µM | TK-10 > 100 µM | SF-539 45.5 µM | BT-549 > 100 µM | MDA-N > 100 µM | ACHN > 100 µM | UO-31 36.7 µM | RXF 393 > 100 µM | SF-295 > 100 µM | OVCAR-5 > 100 µM | COLO 205 > 100 µM | OVCAR-8 > 100 µM | HL-60 > 100 µM | NCI-H23 > 100 µM | MDA-MB-231 65.3 µM | A549 > 100 µM | NCI-H226 82.6 µM | Hs-578T > 100 µM | UACC-257 > 100 µM

COc1ccc2oc(=O)c(-c3csc(-c4ccccc4)n3)cc2c1
inactive: 786-0 17.9 µM | TK-10 22.9 µM | SF-539 16.9 µM | BT-549 21.4 µM | MDA-N > 100 µM | ACHN 32 µM | UO-31 24 µM | RXF 393 24.9 µM | SF-295 22.8 µM | OVCAR-5 > 100 µM | COLO 205 > 100 µM | HL-60 > 100 µM | MDA-MB-231 43.4 µM | A549 64.7 µM | NCI-H226 39.2 µM | Hs-578T 37.8 µM | UACC-257 > 100 µM

CC(=O)c1c(C)cc2cccc(OC3OC(CO)C(O)C(O)C3O)c2c1O.CC1OC(O)C(O)C(O)C1O (stereo not given)
inactive: 786-0 > 100 µM | TK-10 > 100 µM | SF-539 > 100 µM | BT-549 > 100 µM | MDA-N > 100 µM | ACHN > 100 µM | RXF 393 > 100 µM | SF-295 > 100 µM | OVCAR-5 > 100 µM | Malme-3M > 100 µM | COLO 205 > 100 µM | OVCAR-8 > 100 µM | HL-60 > 100 µM | NCI-H23 > 100 µM | MDA-MB-231 > 100 µM | A549 > 100 µM | NCI-H226 > 100 µM | Hs-578T > 100 µM | UACC-257 > 100 µM

N=C(N)Nc1ccc(CC(N)C(=O)O)cc1 (stereo not given)
inactive: 786-0 > 12.5 µM | TK-10 > 12.5 µM | BT-549 > 12.5 µM | MDA-N > 12.5 µM | ACHN > 12.5 µM | UO-31 > 12.5 µM | RXF 393 > 12.5 µM | SF-295 > 12.5 µM | OVCAR-5 > 12.5 µM | Malme-3M > 12.5 µM | COLO 205 > 12.5 µM | OVCAR-8 > 12.5 µM | HL-60 > 12.5 µM | NCI-H23 > 12.5 µM | MDA-MB-231 > 12.5 µM | A549 > 12.5 µM | NCI-H226 > 12.5 µM | Hs-578T > 12.5 µM | UACC-257 > 12.5 µM

COc1cc2c(cc1OC)C1c3ccccc3CCCN1CC2 (stereo not given)
inactive: 786-0 > 100 µM | TK-10 > 100 µM | SF-539 > 100 µM | BT-549 > 100 µM | MDA-N > 100 µM | ACHN > 100 µM | UO-31 8.41 µM | SF-295 47.6 µM | OVCAR-5 > 100 µM | Malme-3M > 100 µM | COLO 205 > 100 µM | OVCAR-8 > 100 µM | HL-60 41.3 µM | NCI-H23 > 100 µM | MDA-MB-231 > 100 µM | A549 > 100 µM | NCI-H226 > 100 µM | Hs-578T > 100 µM | UACC-257 > 100 µM

CC1=NN(C(=O)CC(=O)Nc2ccccc2Cl)C(=O)C1/N=N/c1ccc(C(=O)O)cc1 (stereo not given)
inactive: 786-0 > 100 µM | TK-10 > 100 µM | SF-539 > 100 µM | BT-549 > 100 µM | MDA-N > 100 µM | ACHN > 100 µM | UO-31 62.8 µM | RXF 393 > 100 µM | SF-295 > 100 µM | OVCAR-5 > 100 µM | Malme-3M > 100 µM | COLO 205 > 100 µM | OVCAR-8 > 100 µM | HL-60 > 100 µM | NCI-H23 > 100 µM | MDA-MB-231 > 100 µM | A549 > 100 µM | Hs-578T > 100 µM | UACC-257 > 100 µM
